From patent US20060052346A1, “Nucleoside phosphonate derivatives useful in the treatment of HIV infections” (priority 2004, published 2006)
Where two headings read alike, the source gives them in different places.

Tested on: HIV-1 (NL4-3)
Experiment: Plaque reduction assay (drug susceptibility) in HT4-6C cells infected with HIV-1 NL4-3
Type: cell-based
Details: for IC50: Human immunodeficiency virus 1, NL43, 72 h
Source text: Measurement of Inhibition Effect Against Human Immunodeficiency Virus (HIV)
The compounds of formula 1 protect cells from the cytopathic effects of HIV infection.
Cells. The T-lymphoblastoid cell line CEM was used in this study to propagate HIV. The cells were maintained in RPMI 1640 growth medium supplemented with 10% fetal bovine serum plus antibiotics. The CD4-expressing cell line used for HIV plaque assays, HT4-6C, was made by transforming HeLa cells with the human CD4 gene as described in Chesebro and Wehrly, J. Virology, 62(10), 3779-3788 (1988). These cells were grown in Dulbecco modified eagle medium (DMEM) containing 10% fetal bovine serum plus antibiotics.
Virus propagation. The laboratory strain of HIV-1 (NL4-3) was grown in CEM cells. Virus stocks were prepared from cleared lysates of concentrated infected cells. At peak cytopathic effect (generally 5 days post-infection) culture supernatants were harvested and stored at −80° C. Viral infectivity titers were determined in threefold endpoint dilution assays conducted in CEM cells (six wells per dilution). The 50% tissue culture infective dose (TCID50) was calculated using the Reed and Muench equation.
Plaque titration using HT4-6C. Cells are seeded into 24-well multiwells at 5×10^4 cells per well and incubated overnight at 37° C. in growth medium (DMEM containing 10% fetal bovine serum plus antibiotics). Monolayers were infected with 10-fold dilutions of cell-free NL4-3 virus in 0.2 ml of DMEM and were incubated for 1 h at 37° C. to allow virus adsorption. Following this, 0.8 ml of DMEM containing 5% fetal bovine serum plus antibiotics was added to each well, and the cultures were incubated at 37° C. for 2 to 3 days. The monolayers were fixed with a 10% formaldehyde solution in phosphate-buffered saline and stained with 0.25% crystal violet in order to visualize virus plaques. Individual foci of multinucleated giant cells (plaques) are obvious when this staining procedure was used. Virus titers were evaluated from plaque numbers and were expressed as PFU per milliliter.
Drug susceptibility assays. Plaque reduction assays were performed by infecting monolayers of HT4-6C cells with 100 to 300 PFU of virus per well in 24-well microdilution plates as described above. Half-log concentrations of inhibitor were added to the culture medium (DMEM containing 5% fetal bovine serum plus antibiotics), and cultures were incubated for 3 days at 37° C. prior to fixation and staining as described above. ID50s were derived from plots of percentage of plaque reduction versus inhibitor concentration. See Larder et al., Antimicrob Agents Chemother, 34(3), 436-41 (March 1990).

[1] = plaque reduction, HT4-6C cell monolayers, 100 to 300 PFU of virus per well, 3 days at 37° C., read-out: ID50 (the source's name)
[2] = plaque reduction, HT4-6C cell monolayers, 100 to 300 PFU of virus per well, 3 days at 37° C.

| Structure (SMILES) | IC50 [1] | ID25 [2] | IC50 (read-out: ID50 (μM)) |
| --- | --- | --- | --- |
| CC1CC1(Cn1cnc2c(N)ncnc21)OCP(=O)(O)O (centres unmarked) [Compound 103, ({1-[(6-amino-9H-purin-9-yl)methyl]-2-methylcyclopropyl}oxy)methylphosphonic acid] | > 100 µM | <10 µM |  |
| Nc1ncc2ncn(CC3(OCP(=O)(O)O)CC3)c2n1 [Compound 9, ({1-[(2-amino-9H-purin-9-yl)methyl]cyclopropyl}oxy)methylphosphonic acid] | > 100 µM | <10 µM |  |
| CC(C)(C)C(=O)OCOP(=O)(COC1(Cn2cnc3cnc(N)nc32)CC1)OCOC(=O)C(C)(C)C [Compound 10, 3-[({1-[(2-amino-9H-purin-9-yl)methyl]cyclopropyl}oxy)methyl]-8,8-dimethyl-3,7-dioxo-2,4,6-trioxa-3λ^5-phosphanon-1-yl pivalate] |  | <0.1 µM | < 10 µM |
| CC1CC1(Cn1cnc2cnc(N)nc21)OCP(=O)(O)O (centres unmarked) [Compound 98, ({1-[(2-amino-9H-purin-9-yl)methyl]-2-methylcyclopropyl}oxy)methylphosphonic acid] | > 100 µM | <200 µM |  |

Continued, in another order:

| IC50 [1] | Structure (SMILES) | ID25 [2] | IC50 (read-out: ID50 (μM)) |
| --- | --- | --- | --- |
| ~100 µM | Nc1nc(O)c2ncn(CC3(OCP(=O)(O)O)CC3)c2n1 [Compound 5, ({1-[(2-amino-6-hydroxy-9H-purin-9-yl)methyl]cyclopropyl}oxy)methylphosphonic acid] | <10 µM |  |
| < 10 µM | CC(C)(C)C(=O)OCOP(=O)(COC1(Cn2cnc3c(O)nc(N)nc32)CC1)OCOC(=O)C(C)(C)C [Compound 6, 3-[({1-[(2-amino-6-hydroxy-9H-purin-9-yl)methyl]cyclopropyl}oxy)methyl]-8,8-dimethyl-3,7-dioxo-2,4,6-trioxa-3λ^5-phosphanon-1-yl pivalate] | <0.1 µM |  |
| < 100 µM | CC1CC1(Cn1cnc2cnc(N)nc21)OCP(=O)(OCOC(=O)C(C)(C)C)OCOC(=O)C(C)(C)C (centres unmarked) [Compound 106, 3-[({1-[(2-amino-9H-purin-9-yl)methyl]-2-methylcyclopropyl}oxy)methyl]-8,8-dimethyl-3,7-dioxo-2,4,6-trioxa-3λ^5-phosphanon-1-yl pivalate] | <1.0 µM |  |
